What all share (format): biochemical
One experiment deals with T1, recombinant human VAP-1 (Homo sapiens, UniProt Q16853).
T1 construct: purchased R&D systems
T1 sequence (Q16853 1-763): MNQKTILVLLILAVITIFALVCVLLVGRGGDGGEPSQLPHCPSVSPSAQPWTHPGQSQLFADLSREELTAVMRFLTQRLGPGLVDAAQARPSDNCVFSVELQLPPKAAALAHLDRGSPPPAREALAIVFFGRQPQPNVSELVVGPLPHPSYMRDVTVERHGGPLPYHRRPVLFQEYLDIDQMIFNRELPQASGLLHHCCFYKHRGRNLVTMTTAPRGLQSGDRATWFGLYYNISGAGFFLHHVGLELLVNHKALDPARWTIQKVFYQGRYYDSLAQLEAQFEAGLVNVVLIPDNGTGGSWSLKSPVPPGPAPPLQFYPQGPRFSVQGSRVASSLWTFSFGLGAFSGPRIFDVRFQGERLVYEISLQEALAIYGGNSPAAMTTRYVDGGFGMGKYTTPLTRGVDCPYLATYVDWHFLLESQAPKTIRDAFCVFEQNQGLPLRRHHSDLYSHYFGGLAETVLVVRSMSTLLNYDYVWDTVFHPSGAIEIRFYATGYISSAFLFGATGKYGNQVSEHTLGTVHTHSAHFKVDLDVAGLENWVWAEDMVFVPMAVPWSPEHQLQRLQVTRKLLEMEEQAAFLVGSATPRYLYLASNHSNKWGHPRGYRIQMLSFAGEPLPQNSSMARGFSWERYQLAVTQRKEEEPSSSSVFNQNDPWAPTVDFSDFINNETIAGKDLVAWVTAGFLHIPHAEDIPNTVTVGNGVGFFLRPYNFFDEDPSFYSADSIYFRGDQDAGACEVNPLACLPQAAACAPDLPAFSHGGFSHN
Briefly: Activity evaluation on recombinant human VAP-1 (Amplex Red/HRP-coupled hydrogen peroxide assay, benzylamine substrate). The following applies: read-out: Inhibitory Activity (IC50, nM) human VAP-1. As to the method: (§1) The compounds according to the present technology were evaluated in terms of activity on recombinant human VAP-1 (R&D systems) by measuring the level of hydrogen peroxide in horseradish peroxidase (HRP)-coupled reaction using Amplex Red Hydrogen Peroxide Assay Kit (Molecular Probes, Invitrogen, USA). The experiment was carried out at room temperature using benzylamine as a substrate. In the HRP-coupled reaction, hydrogen peroxide oxidation of 10-acetyl-3,7-dihydroxyphenoxazine (Amplex Red reagent) produces resorufin, which is a highly fluorescent compound. Briefly, the test compound was dissolved in dimethyl sulfoxide (DMSO) at a concentration of 20 mM. The dose-response assessment was made by 1:3 serial dilution in DMSO, thereby creating a 8 point curve. The concentration of the upper part was controlled according to the efficacy of the compounds, followed by the dilution with a reaction buffer solution to obtain a final DMSO concentration of less than 1%. To each well of a 96 black well plate, human VAP-1 purified in 50 mM sodium phosphate buffer solution (pH7.4) was added. The test compounds dissolved in DMSO were incubated with the human VAP-1 enzymes at 37° C. for 30 minutes. After 30-minute incubation, each well was added with a reaction mixture containing 200 uM Amplex Red reagent prepared from 50 mM sodium phosphate buffer solution (pH 7.4), 1 mM benzylamine, and 1 U/mL HRP. Fluorescence intensity was measured at several time points during 1-2 hours using a microplate reader (Flexstation3, Molecular Devices) under the wavelength condition exciting at 544 nm and reading the emission at 590 nm. The inhibitory effect of the compounds was measured as a decrease (%) in the signal rate as compared to the control group without any inhibitor (only diluted DMSO). Data was fixed to a logistic model with four variables and IC50 value was calculated using GraphPad Prism program.

Experiment [1] addresses T2, recombinant human MAO-A (monoamine oxidase-A) (Homo sapiens, UniProt P21397).
T2 construct: purchased Sigma-Aldrich
T2 sequence (P21397 1-527): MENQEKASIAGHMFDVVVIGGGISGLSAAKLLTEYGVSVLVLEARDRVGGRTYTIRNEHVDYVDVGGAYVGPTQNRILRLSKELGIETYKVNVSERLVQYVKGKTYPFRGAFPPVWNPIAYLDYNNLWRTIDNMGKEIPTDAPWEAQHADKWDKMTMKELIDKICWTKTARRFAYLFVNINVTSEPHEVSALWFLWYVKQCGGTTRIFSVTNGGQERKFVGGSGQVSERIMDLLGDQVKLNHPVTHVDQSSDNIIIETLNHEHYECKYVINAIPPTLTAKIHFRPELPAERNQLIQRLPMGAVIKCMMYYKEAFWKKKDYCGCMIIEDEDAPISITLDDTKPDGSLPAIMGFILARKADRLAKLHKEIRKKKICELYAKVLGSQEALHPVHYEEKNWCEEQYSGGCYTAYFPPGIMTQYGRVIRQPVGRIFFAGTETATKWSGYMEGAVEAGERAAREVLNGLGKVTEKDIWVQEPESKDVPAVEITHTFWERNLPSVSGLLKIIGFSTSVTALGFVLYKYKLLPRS
Briefly: Activity evaluation on recombinant human MAO-A (Amplex Red/HRP-coupled assay, 0.5 mM tyramine substrate). As to conditions: read-out: Inhibitory Activity (IC50, nM) MAO-A. As to the method:
as §1
(§2) In addition, the compounds according to the present technology were evaluated in terms of activity on a recombinant human MAO-A (monoamine oxidase-A, Sigma-Aldrich) and a recombinant human MAO-B (monoamine oxidase-B, Sigma-Aldrich) by using as substrates, 0.5 mM tyramine and 1 mM benzylamine, respectively, with a method similar to the activity evaluation method for recombinant human VAP-1. The compounds according to the present technology were also evaluated in terms of activity on a recombinant human DAO (diamine oxidase, R&D systems) by using as a substrate 1 mM putrescine with a method similar to the activity evaluation method for recombinant human VAP-1.

The target of experiment [2] is T3, recombinant human MAO-B (monoamine oxidase-B) (Homo sapiens, UniProt P27338).
T3 construct: purchased Sigma-Aldrich
T3 sequence (P27338 1-520): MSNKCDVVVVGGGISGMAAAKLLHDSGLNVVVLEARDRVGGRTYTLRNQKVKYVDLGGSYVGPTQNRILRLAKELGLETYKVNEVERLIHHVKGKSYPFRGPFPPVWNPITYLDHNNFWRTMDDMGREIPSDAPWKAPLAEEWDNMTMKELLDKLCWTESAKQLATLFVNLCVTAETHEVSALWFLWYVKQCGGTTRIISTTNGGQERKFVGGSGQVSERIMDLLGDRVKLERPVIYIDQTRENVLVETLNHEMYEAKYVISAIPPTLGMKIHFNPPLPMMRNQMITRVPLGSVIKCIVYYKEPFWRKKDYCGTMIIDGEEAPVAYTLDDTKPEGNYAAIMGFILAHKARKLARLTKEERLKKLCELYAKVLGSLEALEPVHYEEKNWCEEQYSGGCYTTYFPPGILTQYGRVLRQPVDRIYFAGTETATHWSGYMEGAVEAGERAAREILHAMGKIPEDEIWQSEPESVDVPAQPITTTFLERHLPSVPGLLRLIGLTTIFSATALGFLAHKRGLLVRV
Briefly: Activity evaluation on recombinant human MAO-B (Amplex Red/HRP-coupled assay, 1 mM benzylamine substrate). As to conditions: read-out: Inhibitory Activity (IC50, nM) MAO-B. As to the method:
as §1, §2

Experiment [3] deals with T4, recombinant human DAO (diamine oxidase) (Homo sapiens, UniProt P19801).
T4 construct: purchased R&D systems
T4 sequence (P19801 20-751): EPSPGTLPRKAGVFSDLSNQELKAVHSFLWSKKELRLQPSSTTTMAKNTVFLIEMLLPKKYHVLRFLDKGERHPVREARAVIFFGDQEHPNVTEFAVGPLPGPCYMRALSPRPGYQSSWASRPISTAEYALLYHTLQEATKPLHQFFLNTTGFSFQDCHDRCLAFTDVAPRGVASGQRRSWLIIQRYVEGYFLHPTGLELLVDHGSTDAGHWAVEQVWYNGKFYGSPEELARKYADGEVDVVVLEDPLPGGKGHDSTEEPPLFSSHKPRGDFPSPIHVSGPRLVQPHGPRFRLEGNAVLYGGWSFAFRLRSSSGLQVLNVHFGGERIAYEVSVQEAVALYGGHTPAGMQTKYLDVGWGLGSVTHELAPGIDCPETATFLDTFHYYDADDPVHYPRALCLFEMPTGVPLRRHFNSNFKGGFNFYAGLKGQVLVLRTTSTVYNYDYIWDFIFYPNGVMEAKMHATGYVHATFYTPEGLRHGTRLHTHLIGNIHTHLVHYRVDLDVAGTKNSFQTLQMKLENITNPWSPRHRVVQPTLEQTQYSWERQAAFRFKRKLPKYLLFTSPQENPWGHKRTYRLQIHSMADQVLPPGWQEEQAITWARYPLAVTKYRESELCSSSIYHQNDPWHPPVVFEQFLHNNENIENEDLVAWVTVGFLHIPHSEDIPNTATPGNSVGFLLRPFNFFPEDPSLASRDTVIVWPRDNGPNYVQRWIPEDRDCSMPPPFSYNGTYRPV
Briefly: Activity evaluation on recombinant human DAO (Amplex Red/HRP-coupled assay, 1 mM putrescine substrate). As to conditions: read-out: Inhibitory Activity (IC50, nM) DAO. On the procedure: as §1, §2

[4] abbreviates: recombinant human VAP-1, 30 min preincubation at 37° C., 1 mM benzylamine.
The mark [5] stands for this setting: recombinant human VAP-1, benzylamine substrate.

Consider nine compounds from patent US11168073B2, “3,3-difluoroallylamines or salts thereof and pharmaceutical compositions comprising the same” (YUHAN CORPORATION, priority 2018, dated 2021).

The structures appear in SMILES notation. Where a name gives a salt, the structure may show the parent alone. Read-outs that look alike come from different tables or passages of the source.

Broadly, the IC50 is the midpoint of a concentration-inhibition curve. With `NCC(Cn1ncn(-c2ccc(-c3ccc4c(c3)OCO4)cc2F)c1=O)=C(F)F` [Example 35, 2-[2-(aminomethyl)-3,3-difluoro-allyl]-4-[4-(1,3-benzodioxol-5-yl)-2-fluoro-phenyl]-1,2,4-triazol-3-one Trifluoroacetate], the IC50 is 0.3 nM at recombinant human VAP-1 (setting [4]), above 100000 nM in experiment [1] (0.5 mM tyramine), 33 nM in experiment [2] (1 mM benzylamine) and 540 nM in experiment [3] (1 mM putrescine).

For the compound `CC(=O)c1ccc(-c2ccc(Cn3cnn(CC(CN)=C(F)F)c3=O)s2)cc1` [Example 100, 4-[[5-(4-acetylphenyl)-2-thienyl]methyl]-2-[2-(aminomethyl)-3,3-difluoro-allyl]-1,2,4-triazol-3-one trifluoroacetate], the IC50 is 0.5 nM at recombinant human VAP-1 (setting [4]), above 100000 nM in experiment [1] (0.5 mM tyramine), 11000 nM in experiment [2] (1 mM benzylamine) and above 10000 nM in experiment [3] (1 mM putrescine).

As for `NCC(Cn1ncn(-c2ccc(Br)c(F)c2)c1=O)=C(F)F` [Example 4, 2-[2-(aminomethyl)-3,3-difluoro-allyl]-4-(4-bromo-3-fluoro-phenyl)-1,2,4-triazol-3-one Trifluoroacetate], the IC50 at recombinant human VAP-1 (setting [4]) was 4.2 nM; in experiment [1] (0.5 mM tyramine), above 100000 nM; in experiment [2] (1 mM benzylamine) it was 2300 nM; in experiment [3] (1 mM putrescine) it was 58000 nM.

As for `CCn1cc(-c2cc(C)c(Cn3cnn(CC(CN)=C(F)F)c3=O)s2)cn1` [Example 159, 2-[2-(aminomethyl)-3,3-difluoro-allyl]-4-[[5-(1-ethylpyrazol-4-yl)-3-methyl-2-thienyl]methyl]-1,2,4-triazol-3-one Trifluoroacetate], the IC50 at recombinant human VAP-1 (setting [4]) is 5.2 nM; in experiment [1] (0.5 mM tyramine), above 100000 nM; in experiment [2] (1 mM benzylamine), above 100000 nM; in experiment [3] (1 mM putrescine) it was 52000 nM.

For `CS(=O)(=O)c1ccc(-c2cnc(-n3cnn(CC(CN)=C(F)F)c3=O)cn2)cc1` [Example 89, 2-[2-(aminomethyl)-3,3-difluoro-allyl]-4-[5-(4-methylsulfonylphenyl)-pyrazin-2-yl]-1,2,4-triazol-3-one Trifluoroacetate], the IC50 at recombinant human VAP-1 (setting [4]) was 0.6 nM; in experiment [1] (0.5 mM tyramine) it was above 100000 nM; in experiment [2] (1 mM benzylamine), 1900 nM; in experiment [3] (1 mM putrescine), 2 nM.

For the compound `NCC(Cn1ncn(-c2ccc(F)c(F)c2)c1=O)=C(F)F` [Example 3, 2-[2-(aminomethyl)-3,3-difluoro-allyl]-4-(3,4-difluorophenyl)-1,2,4-triazol-3-one Trifluoroacetate], the IC50 on recombinant human VAP-1 (setting [4]) is 4 nM; in experiment [1] (0.5 mM tyramine) it was above 100000 nM; in experiment [2] (1 mM benzylamine) it was 25000 nM; in experiment [3] (1 mM putrescine), 19000 nM.

On to `Cc1c(-c2cccc(-c3nc[nH]n3)c2)cccc1-n1cnn(CC(CN)=C(F)F)c1=O` [Example 263, 2-[2-(aminomethyl)-3,3-difluoro-allyl]-4-[2-methyl-3-[3-(1H-1,2,4-triazol-3-yl)phenyl]phenyl]-1,2,4-triazol-3-one Trifluoroacetate], for which the IC50 at recombinant human VAP-1 (setting [5]) was 29 nM; in experiment [1] (0.5 mM tyramine substrate), above 100000 nM; in experiment [2] (1 mM benzylamine substrate), above 100000 nM; in experiment [3] (1 mM putrescine substrate), above 100000 nM.

For `CN(C)c1ccc(-c2cccc(Cn3cnn(CC(CN)=C(F)F)c3=O)c2)cn1` [Example 273, 2-[2-(aminomethyl)-3,3-difluoro-allyl]-4-[[3-[6-(dimethylamino)-3-pyridyl]phenyl]methyl]-1,2,4-triazol-3-one Trifluoroacetate], the IC50 on recombinant human VAP-1 (setting [5]) was 1.8 nM; in experiment [1] (0.5 mM tyramine substrate) it was above 100000 nM; in experiment [2] (1 mM benzylamine substrate), 2900 nM; in experiment [3] (1 mM putrescine substrate), 39300 nM.

`Cc1cc(-c2ccc(S(C)(=O)=O)cc2)sc1Cn1cnn(CC(CN)=C(F)F)c1=O` [Example 154, 2-[2-(aminomethyl)-3,3-difluoro-allyl]-4-[[3-methyl-5-(4-methylsulfonylphenyl)-2-thienyl]methyl]-1,2,4-triazol-3-one Trifluoroacetate]: the IC50 on recombinant human VAP-1 (setting [4]) was 4 nM; in experiment [1] (0.5 mM tyramine) it was above 100000 nM; in experiment [2] (1 mM benzylamine) it was above 100000 nM; in experiment [3] (1 mM putrescine), 21000 nM.
